The subject of one data set is Rolipram binding site. The data set is described as follows: Inhibition of binding at the Rolipram binding site. Particulars: 10 uM.
A short description of data set [1]: Chiral and chemical stability in solution and on storage. It counts as physicochemical. The source says: Without ascribing to any particular theory, the present inventors believe that the facile separation of enantiomers using the N-protected racemate of AV1013 is probably due to the greater stability of the racemate as well as the separate enantiomers in protected form. […] Unstability also stems from the ability of the free base to self condense. Because self-condensation is promoted in concentrated solutions, it is desirable to avoid highly concentrated solutions of the free base form of optically active AV1013. Likewise, the free base form of racemic AV1013 or its hydrochloride salt are also unstable, precluding their use as precursors to obtaining (S)-AV1013 as a free base or its hydrochloride salt in high yield and/or high purity.
Thus, it is often desirable to re-purify the de-protected product using purification techniques known in the art. For example, any one or more of the methods described above for separating chiral molecules, such as, chromatography (e.g., HPLC, GC, and SFC), crystallization, fractional crystallization, and the like may be used for re-purification. An exemplary method is recrystallization. Purification by recrystallization allows separation of the desired (S)-enantiomer in high purity, such that the overall reaction sequence including isolation of the desired (S)-enantiomer requires only a single chromatographic step (i.e., the chiral separation). Recrystallization can be carried out in any of a number of single or mixed solvent systems including alcohols, ethers, esters, nitriles, halogenated hydrocarbons, amides and aqueous mixtures thereof. Suitable solvents include methanol, ethanol, propanol, iso-propanol, acetone, tetrahyrofuran, methyl ethyl ketone, methyl isobutyl ketone, ethyl acetate, amyl acetate, acetonitrile, diethyl ether, methyl tert-butyl ether, dichloromethane, dichloroethane, chloroform, dimethylformamide, and combinations thereof. Illustrative mixed solvent systems used to recrystallize (S)-AV1013 are iso-propanol/methyl tert-butyl ether and ethanol/methyl tert-butyl ether.
The five-step route provided a 15% overall yield of (S)-AV1013.HCl. The chiral separation, by SFC chromatography, is the only chromatographic step required. Hydrolysis of the N-protected (S)-AV1013, followed by recrystallization from iso-propanol/methyl tert-butyl ether provided (S)-AV1013.HCl in greater than 99% chemical purity and greater than 97% S-enantiomer (greater than 94% enantiomeric excess (ee)) by chiral HPLC, as determined from the equation ee=[|R−S^51÷(R+S)]×100 ee=[|R−S|÷(R+S)]×100. […] Even under optimal storage and handling conditions to minimize exposure to moisture, a small degree of racemization (i.e., approximately 2%) was observed. Recrystallization was effective to improve enantiomeric purity to arrive at a product having an illustrative chiral purity as described above. […] The recrystallized (S)-AV 1013.HCl contained approximately 25 mole percent alcohol (less than about 10% by weight) even when dried at 50° C. Thus, it appears that the resultant product is formed as a solvate under the recrystallization and drying conditions employed.

The subject of data set [2] is rat chronic constriction injury model of neuropathic pain. The data set is described as follows: Rat chronic constriction injury model of neuropathic pain (von Frey mechanical allodynia). It counts as in vivo. As to conditions: for in vivo activity in a rat model of neuropathic pain: dose not stated. The source says: The (S)- and the (R)-enantiomer of AV1013 were each evaluated in a rat chronic constriction injury model of neuropathic pain (see, Ledeboer et. al., Neuron Glia Biology, (2006), p 279-291), to determine whether differences in their activity could be observed.
To induce allodynia, male Sprague-Dawley rats underwent chronic constriction injury (CCI) to the sciatic nerve as described by Bennett and Xie, Pain 1988; 33(1):87-107. The plantar surface of the hind paws was stimulated with von Frey filaments (Stoelting) to induce a withdrawal response by blinded personnel. The bending force of fiber required to induce a 50% withdrawal response was calculated following CCI surgery (pre-dosing baseline).
Allodynic rats (N=5-6), received an oral administration of (S)-AV1013 (25 mg/kg), AV1013-R (100 mg/kg) or vehicle. Two hours post-dosing, 50% paw withdrawal threshold was determined by blinded testers using von Frey filaments. The 50% withdrawal threshold prior to CCI surgery, pre-dosing (10 days post-surgery), and 2 hours post-dosing are plotted in FIG. 3.

Data set [3] in a line: Rat pharmacokinetics of the enantiomers after oral dosing of racemic AV1013. The data set is classed as in vivo. How it is done: Three male Sprague-Dawley rats were dosed orally via gavage with 25 mg/kg racemic AV1013 dissolved in water. Serial blood samples were collected from the tail vein at 5, 15, and 30 min, 1, 3, and 6 hours post dosing. Samples were processed for plasma via centrifugation and plasma samples were stored frozen prior to analysis.
(§1) A sensitive and specific chiral HPLC/MS/MS bioanalytical method for the detection of (S)-AV1013 and (R)-AV1013 enantiomers in rat and dog plasma was utilized. AV1013 enantiomers and the internal standard (AV1040, an analog of AV1013) were isolated from plasma by protein precipitation induced by acetonitrile. After centrifugation to sediment the proteins, the supernatant fractions were analyzed by high performance liquid chromatography (LC) in conjunction with a triple quadrupole mass spectrometer that used electrospray ionization in tandem with positive ionization (MS/MS) according to the conditions below. The LLOQ (lower level of quantitation) was typically <3 ng/mL.
(§2) Analysis of pharmacokinetic parameters was performed for each enantiomer via LC/MS bioanalytics and WinNonlin™ analysis (version 4.0.1; Pharsight Corp., Mountain View, Calif.), commercial software designed for the analysis of PK data. The PK modeling was based on a non-compartmental model with gradual input into the central compartment. Computation of the area under the curve (AUC) was based on the sum of trapezoidal areas for the plotted plasma concentration-time data. AUC and associated parameters were estimated by log-linear regression analysis of the terminal phase.

The target of data set [4] is T1, rhMIF (recombinant human Macrophage migration Inhibitory Factor) (Homo sapiens, UniProt P14174).
T1 sequence (P14174 2-115 limits assumed): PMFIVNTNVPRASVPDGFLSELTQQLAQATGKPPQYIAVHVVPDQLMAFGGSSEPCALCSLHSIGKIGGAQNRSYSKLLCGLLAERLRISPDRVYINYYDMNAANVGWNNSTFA
In words: MIF-induced migration of human peripheral blood monocytes (PBMCs). As to conditions: rhMIF 90 nM, dilution series of inhibitor. The data set is classed as cell-based. How it is done: The chemo attractant activities of rhMIF (recombinant human Macrophage migration Inhibitory Factor) and the effect of inhibitors were measured using human peripheral blood monocytes (PBMCs) isolated from whole blood by centrifugation on Histopaque-1077 (Sigma). The cells were washed in RPMI-1640, diluted to 1×10^6 cells/ml and analyzed immediately. These assays were carried out in 24 well tissue culture plates utilizing 8.0 μm cell culture inserts (Falcon). Recombinant hMIF (90 nM), diluted in RPMI was placed in the cells of a 24 well plate with or without inhibitor (10-fold molar excess or dilution series) and allowed to incubate for 30 min at 37° C., 5% CO2. Washed human monocytes were added to the upper chamber of 8.0 μm cell culture inserts and allowed to incubate for 3 hrs at 37° C., 5% CO2. Cells that migrate through the membrane were fixed in methanol and stained with Geimsa, prior to cell counting using light microscopy.
Results are expressed as the mean number of cells counted per high power field for each of two replicates to obtain statistically significant data. (Legend: −Star=no human MIF, Skull=no human MIF+10 uM (S)-AV1013. See FIGS. 5A and 5B.

Data set [5] can be described thus: Dog pharmacokinetics of the enantiomers after oral dosing of racemic AV1013. It counts as in vivo. How it is done:
Three male beagle dogs were dosed orally with 10 mg/kg racemic AV1013 via gavage. AV1013 was dissolved in water at 5 mg/ml and dosed via gavage at a volume of 2 ml/kg. Blood samples were collected via the jugular vein at 5, 15 and 30 minutes, 1, 2, 4, 6, 8, and 24 hours post dosing.
as §1, §2

The subject of a further data set is formalin paw model. In words: Inflammatory pain model (formalin paw model) in mice. It counts as in vivo. Particulars: mice, 300 mg/kg p.o. 60 min before the test. The method, then:
The model employed is described in detail by Wheeler-Aceto et al (Psychopharmacology, 104, p 35-44, (1991)). Briefly, mice were given an intraplantar injection of 5% formalin (25 μl) into the posterior left paw. […] Mice were briefly observed at 1 minute intervals between 15 and 50 minutes after the injection of formalin and the number of times mice were observed licking the injected paw was recorded. 10 mice were studied in each group. The test was performed blind.
AV1013-S was evaluated at 3 doses (10, 25 and 50 mg/kg), administered p.o. 60 minutes before the test (i.e. 45 minutes before formalin), and compared with a vehicle control group. Gabapentin (300 mg/kg p.o.), administered under the same experimental conditions, was used as reference substance. The experiment therefore included 5 groups.
Data were analyzed by comparing treated groups with vehicle control using unpaired Mann-Whitney U tests.

Where [6] appears, read: oral 25 mg/kg racemic AV1013, plasma.
[7] abbreviates: oral dosing of racemate, rounded values.
The mark [8] stands for this setting: beagle dog, oral 10 mg/kg racemic AV1013, plasma.
The mark [9] stands for this setting: dog, oral dosing of racemate, rounded values.

“Also recorded” adds a separate entry of the source. Marks after values point to notes of the source that are not given here.

The term Cmax denotes the peak of the concentration-time curve.

`CC(N)C(=O)c1c(C(C)C)nn2ccccc12` (racemic) [AV1013, 2-amino-1-(2-isopropylpyrazolo[1,5-a]pyridin-3-yl)propan-1-one]: the “inhibition of the Rolipram binding site” value in the data set on Rolipram binding site came out at 43%. Also, the “stability / racemization in solution” value in data set [1] (free base (or hydrochloride salt where stated), in solution) is listed as “unstable”. In data set [2], the “in vivo activity in a rat model of neuropathic pain” value is reported as “significant in vivo activity”.

For `CC(C)c1nn2ccccc2c1C(=O)[C@@H](C)N` [(R)-AV1013], the AUC last in data set [3] (setting [6]) turned out to be 340 ng·h/mL; in data set [5] (setting [8]), 7640 ng·h/mL. In addition, the peak concentration (Cmax) in data set [3] (setting [6]) came out at 190 ng/mL; in data set [5] (setting [8]) it was 1140 ng/mL. The results for the “calculated area under the curves (AUC)” value in data set [3] (setting [7]) and in data set [5] (setting [9]) were 300 ng·h/mL and 7600 ng·h/mL, respectively. The results for the “mean peak plasma levels (Cmax)” value in data set [3] (setting [7]) and in data set [5] (setting [9]) were 200 ng/mL and 1100 ng/mL, respectively. Also, the “antagonism of MIF-induced cell migration” value in data set [4] is listed as “antagonize MIF-induced macrophage migration in a dose-dependent fashion; also recorded: antagonize MIF-induced mononuclear cell migration in a similar dose dependent fashion”. In data set [2], the “in vivo activity in a rat model of neuropathic pain” value was “little or no in vivo activity”. Further, the “attenuation of mechanical allodynia (50% paw withdrawal threshold)” value in data set [2] (rat CCI, oral 100 mg/kg, 2 hours post-dosing) is “essentially no activity”.

As to `CC(C)c1nn2ccccc2c1C(=O)[C@H](C)N.Cl` [(S)-AV1013.HCl, (S)-2-Amino-1-(2-isopropylpyrazolo[1,5-a]pyridin-3-yl)propan-1-one hydrochloride], the “degree of racemization on storage” value in data set [1] (hydrochloride salt, optimal storage and handling conditions to minimize exposure to moisture) is on record as “approximately 2%”.

With `NCC1(CC(=O)O)CCCCC1` [Gabapentin, reference compound], the “% Change from Control” value with formalin paw model is −83%. In the data set with formalin paw model (p < 0.01), the “Licking Score (Mean +/− SEM)” value is listed as 2.6 +/− 0.8 *.
